Data reported in patent publication US8242275B2, “Bicyclic pyrazole compounds as antibacterial agents” (Janssen Pharmaceutica NV, priority 2005, dated 2012).
Values after ≈ are worked out from the molar mass of the structure shown.

What was measured:
[1] = system: E. coli KL-16 (GSC strain 4245); test: In vitro antibacterial activity (MIC assay), broth microdilution; assay type: cell-based; conditions: Escherichia coli
Procedure, shortened: (§1)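 Bacteria at roughly 5×10^5 CFU/mL final were grown 16–24 h at 35° C in wells holding 2-fold serial dilutions (11 points) of compound prepared in 100% DMSO, following NCCLS M7-A5. MIC, in μg/mL, is the concentration that stops visible growth relative to untreated wells.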

S. aureus ATCC13709 = test: as above; assay type: cell-based; conditions: Staphylococcus aureus, ATCC13709; read-out: S. aureus ATCC13709 MIC
Procedure, shortened: as §1

S. pneumoniae ATCC49619 = test: as above; assay type: cell-based; conditions: Streptococcus pneumoniae, ATCC49619; read-out: S. pneumoniae ATCC49619 MIC
Procedure, shortened: as §1

E. coli DNA gyrase = target: T1, E. coli DNA gyrase (Escherichia coli, UniProt P0AES4+P0AES6); test: DNA gyrase inhibition assay (supercoiling); assay type: biochemical; conditions: E. coli DNA gyrase supercoiling, visual inspection of gels; read-out: DNA Gyrase IC50 (converted)
T1 construct: purchased John Innes Enterprises Ltd. (John Innes Centre, UK)
Procedure: Inhibition of the supercoiling activity of E. coli DNA gyrase was determined using enzymes, buffers and substrates received from John Innes Enterprises Ltd. (John Innes Centre, UK). The reactions were performed according to the manufacturer's directions, with the following modifications.
DNA supercoiling reactions were carried out in a total reaction volume of 20 μL containing 250 ng of relaxed pBR322, 35 mM Tris-HCl (pH 7.5), 24 mM KCl, 4 mM MgCl2, 2 mM dithiothreitol, 1.8 mM spermidine, 1 mM ATP, 6.5% glycerol and 100 μg/mL albumin. Compounds diluted in 10% DMSO were added to the reaction mixture to reach a final concentration of 0.5% DMSO. Enzyme was diluted to […] in a solution of 50 mM Tris-HCl (pH 7.5), 100 mM KCl, 2 mM dithiothreitol, 1 mM EDTA, and 50% glycerol. Diluted enzyme (0.2 unit) was added to each reaction.
The reactions were incubated at 37° C. for 30 min. The reactions were then cooled to 0° C., followed by addition of 3 μL of 40% glycerol, 100 mM Tris-HCl (pH 7.5), 50 mM EDTA, 0.5% SDS and 0.1% bromophenol blue. Samples were separated on 1.0% agarose gels. Gels were stained with Ethidium bromide and photographed with a Stratagene Eagle Eye II.

T1 sequence (P0AES4 whole entry, one chain of several): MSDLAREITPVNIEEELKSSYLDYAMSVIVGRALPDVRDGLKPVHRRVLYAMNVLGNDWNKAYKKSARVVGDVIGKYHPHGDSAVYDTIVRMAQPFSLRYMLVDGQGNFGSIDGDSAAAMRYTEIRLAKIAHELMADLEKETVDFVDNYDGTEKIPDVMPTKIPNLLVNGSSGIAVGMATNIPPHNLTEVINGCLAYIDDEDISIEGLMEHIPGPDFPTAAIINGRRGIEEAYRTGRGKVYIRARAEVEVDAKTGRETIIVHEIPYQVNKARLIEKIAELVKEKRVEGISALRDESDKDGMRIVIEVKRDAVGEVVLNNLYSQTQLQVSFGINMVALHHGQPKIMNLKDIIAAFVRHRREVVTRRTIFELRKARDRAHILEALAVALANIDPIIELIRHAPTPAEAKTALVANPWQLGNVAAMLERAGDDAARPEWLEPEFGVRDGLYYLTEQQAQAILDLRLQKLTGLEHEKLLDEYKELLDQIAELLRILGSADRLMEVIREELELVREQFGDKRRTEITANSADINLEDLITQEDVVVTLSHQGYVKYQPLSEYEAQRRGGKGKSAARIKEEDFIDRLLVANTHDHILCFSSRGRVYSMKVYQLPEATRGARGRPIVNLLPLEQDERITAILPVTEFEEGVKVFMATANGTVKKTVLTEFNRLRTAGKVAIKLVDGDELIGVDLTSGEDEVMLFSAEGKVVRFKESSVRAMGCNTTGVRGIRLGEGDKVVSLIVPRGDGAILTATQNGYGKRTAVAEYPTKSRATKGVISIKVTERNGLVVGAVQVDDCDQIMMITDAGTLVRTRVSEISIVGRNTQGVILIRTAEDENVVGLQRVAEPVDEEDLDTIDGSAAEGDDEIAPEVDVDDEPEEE

Row | SMILES | MIC [1] [µg/mL] | MIC (S. aureus ATCC13709) [µg/mL] | MIC (S. pneumoniae ATCC49619) [µg/mL] | IC50 (E. coli DNA gyrase) [µM]
1 | COc1ccc2nccc(-n3cc4c(n3)CCC(NCC(=O)Nc3cc(F)cc(F)c3)C4)c2c1 (stereo not shown) [Example 61, N-(3,5-Difluoro-phenyl)-2-[2-(6-methoxy-quinolin-4-yl)-4,5,6,7-tetrahydro-2H-indazol-5-ylamino]-acetamide] | 16 (≈ 34.5 µM) | 0.5 (≈ 1.08 µM) | 8 (≈ 17.3 µM) | 4.32
2 | COc1ccc2nccc(-n3cc4c(n3)CCC(NCCOc3ccccc3)C4)c2n1 (stereo not shown) [Example 65, [2-(6-Methoxy-[1,5]naphthyridin-4-yl)-4,5,6,7-tetrahydro-2H-indazol-5-yl]-(2-phenoxy-ethyl)-amine] | > 128 | 0.5 (≈ 1.2 µM) | 1 (≈ 2.41 µM) | 2.41
3 | COc1ccc2nccc(-n3cc4c(n3)CCC(N(Cc3ccccc3)Cc3ccc5c(c3)NC(=O)CS5)C4)c2n1 (stereo not shown) [Example 66, 6-({Benzyl-[2-(6-methoxy-[1,5]naphthyridin-4-yl)-4,5,6,7-tetrahydro-2H-indazol-5-yl]amino}-methyl)-4H-benzo[1,4]thiazin-3-one] | > 128 | 8 (≈ 14.2 µM) | > 128 | 3.55
4 | COc1ccc2nccc(-n3cc4c(n3)CCC(N(CC(=O)OC(C)(C)C)Cc3ccc5c(c3)NC(=O)CS5)C4)c2n1 (stereo not shown) [Example 67, [[2-(6-Methoxy-[1,5]naphthyridin-4-yl)-4,5,6,7-tetrahydro-2H-indazol-5-yl]-(3-oxo-3,4-dihydro-2H-benzo[1,4]thiazin-6-ylmethyl)-amino]-acetic acid tert-butyl ester] | > 128 | 4 (≈ 6.82 µM) | 64 (≈ 109 µM) | > 13.6
5 | COc1ccc2nccc(-n3cc4c(n3)CCC(N(CC(=O)O)Cc3ccc5c(c3)NC(=O)CS5)C4)c2n1 (stereo not shown) [Example 68, [[2-(6-Methoxy-[1,5]naphthyridin-4-yl)-4,5,6,7-tetrahydro-2H-indazol-5-yl]-(3-oxo-3,4-dihydro-2H-benzo[1,4]thiazin-6-ylmethyl)-amino]-acetic acid] | > 128 | 8 (≈ 15.1 µM) | 8 (≈ 15.1 µM) | 1.88
6 | COc1ccc2nccc(-n3cc4c(n3)CCC(NC(=O)c3ccc5c(c3)N(C)C(=O)CS5)C4)c2n1 (stereo not shown) [Example 69, 4-Methyl-3-oxo-3,4-dihydro-2H-benzo[1,4]thiazine-6-carboxylic acid [2-(6-methoxy-[1,5]naphthyridin-4-yl)-4,5,6,7-tetrahydro-2H-indazol-5-yl]-amide] | > 128 | 4 (≈ 7.99 µM) | 64 (≈ 128 µM) | > 7.99
7 | COc1ccc2nccc(-n3cc4c(n3)CCC(NC(=O)c3ccc(Br)s3)C4)c2c1 (stereo not shown) [Example 72, 5-Bromo-thiophene-2-carboxylic acid [2-(6-methoxy-quinolin-4-yl)-4,5,6,7-tetrahydro-2H-indazol-5-yl]-amide] | > 128 | 2 (≈ 4.14 µM) | > 128 | > 33.1
8 | COc1ccc2nccc(-n3cc4c(n3)CCC(NC(=O)c3ccc(C(C)=O)s3)C4)c2c1 (stereo not shown) [Example 73, 5-Acetyl-thiophene-2-carboxylic acid [2-(6-methoxy-quinolin-4-yl)-4,5,6,7-tetrahydro-2H-indazol-5-yl]-amide] | > 128 | 4 (≈ 8.96 µM) | 64 (≈ 143 µM) | > 35.8
9 | COc1ccc2nccc(-n3cc4c(n3)CCC(NC(=O)c3cc5cc(F)c(F)cc5[nH]3)C4)c2c1 (stereo not shown) [Example 74, 5,6-Difluoro-1H-indole-2-carboxylic acid [2-(6-methoxy-quinolin-4-yl)-4,5,6,7-tetrahydro-2H-indazol-5-yl]-amide] | > 128 | 1 (≈ 2.11 µM) | 8 (≈ 16.9 µM) | 4.22
10 | COc1ccc2nccc(-n3cc4c(n3)CCC(NC(=O)c3cc5cc(C)ccc5[nH]3)C4)c2c1 (stereo not shown) [Example 75, 5-Methyl-1H-indole-2-carboxylic acid [2-(6-methoxy-quinolin-4-yl)-4,5,6,7-tetrahydro-2H-indazol-5-yl]-amide] | > 128 | 4 (≈ 8.86 µM) | 16 (≈ 35.4 µM) | > 35.4
11 | COc1ccc2nccc(-n3cc4c(n3)CCC(NC(=O)c3cc5cc(Cl)ccc5[nH]3)C4)c2c1 (stereo not shown) [Example 77, 5-Chloro-1H-indole-2-carboxylic acid [2-(6-methoxy-quinolin-4-yl)-4,5,6,7-tetrahydro-2H-indazol-5-yl]-amide] | > 128 | 2 (≈ 4.24 µM) | 16 (≈ 33.9 µM) | > 33.9
12 | COc1ccc2nccc(-n3cc4c(n3)CCC(NC(=O)c3cccnc3Cl)C4)c2c1 (stereo not shown) [Example 78, 2-Chloro-N-[2-(6-methoxy-quinolin-4-yl)-4,5,6,7-tetrahydro-2H-indazol-5-yl]-nicotinamide] | > 128 | 16 (≈ 36.9 µM) | > 128 | > 36.9
13 | COc1ccc2nccc(-n3cc4c(n3)CCC(NC(=O)c3ccc5c(c3)OCCN5C)C4)c2c1 (stereo not shown) [Example 79, 4-Methyl-3,4-dihydro-2H-benzo[1,4]oxazine-7-carboxylic acid [2-(6-methoxy-quinolin-4-yl)-4,5,6,7-tetrahydro-2H-indazol-5-yl]-amide] | > 128 | 4 (≈ 8.52 µM) | 8 (≈ 17 µM) | > 34.1
14 | CCN(CC)c1ccc(CNC2CCc3nn(-c4ccnc5ccc(OC)nc45)cc3C2)cc1 (stereo not shown) [Example 85, (4-Diethylamino-benzyl)-[2-(6-methoxy-[1,5]naphthyridin-4-yl)-4,5,6,7-tetrahydro-2H-indazol-5-yl]-amine] | 64 (≈ 140 µM) | 8 (≈ 17.5 µM) | 8 (≈ 17.5 µM) | 4.38
15 | COc1ccc2nccc(-n3cc4c(n3)CCC(NCc3ccc(N5CCCCC5)cc3)C4)c2n1 (stereo not shown) [Example 86, [2-(6-Methoxy-[1,5]naphthyridin-4-yl)-4,5,6,7-tetrahydro-2H-indazol-5-yl]-(4-piperidin-1-yl-benzyl)-amine] | > 128 | 4 (≈ 8.54 µM) | 4 (≈ 8.54 µM) | 4.27
16 | COc1ccc2nccc(-n3cc4c(n3)CCC(NCc3ccc(N5CCCC5)cc3)C4)c2n1 (stereo not shown) [Example 87, [2-(6-Methoxy-[1,5]naphthyridin-4-yl)-4,5,6,7-tetrahydro-2H-indazol-5-yl]-(4-pyrrolidin-1-yl-benzyl)-amine] | 64 (≈ 141 µM) | 2 (≈ 4.4 µM) | 8 (≈ 17.6 µM) | 4.4
17 | COc1ccc2nccc(-n3cc4c(n3)CCC(NC(=O)/C=C/c3ccc(Cl)cc3)C4)c2n1 (stereo not shown) [Example 90, 3-(4-Chloro-phenyl)-N-[2-(6-methoxy-[1,5]naphthyridin-4-yl)-4,5,6,7-tetrahydro-2H-indazol-5-yl]-acrylamide] | > 128 | 0.5 (≈ 1.09 µM) | > 128 | > 34.8
18 | COc1ccc2nccc(-n3cc4c(n3)CCC(NC(=O)/C=C/c3cc(F)ccc3C(F)(F)F)C4)c2n1 (stereo not shown) [Example 91, 3-(5-Fluoro-2-trifluoromethyl-phenyl)-N-[2-(6-methoxy-[1,5]naphthyridin-4-yl)-4,5,6,7-tetrahydro-2H-indazol-5-yl]-acrylamide] | > 128 | 4 (≈ 7.82 µM) | > 128 | > 31.3
19 | COc1ccc2nccc(-n3cc4c(n3)CCC(NC(=O)/C=C/c3ccc(Cl)c(Cl)c3)C4)c2n1 (stereo not shown) [Example 92, 3-(3,4-Dichloro-phenyl)-N-[2-(6-methoxy-[1,5]naphthyridin-4-yl)-4,5,6,7-tetrahydro-2H-indazol-5-yl]-acrylamide] | > 128 | 0.5 (≈ 1.01 µM) | > 128 | > 32.4
